From the supplement of paper PMC11451515

Assays:
Settings in all cases: 48 h
NOMO1 [1] = assay: cell viability relative to DMSO control; higher = less cytotoxic
Procedure, shortened: (§1)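 NOMO1 or SEM cells were plated at 500 cells/well and P12-Ichikawa cells at 1000 cells/well in 1536-well plates (5 μl), after each leukemia line had been adapted for at least four passages in each medium. Pin dosing delivered library compounds in DMSO at 11 threefold concentrations, 47 μM to 0.79 nM. CellTiter-Glo One luminescence was read after 48 h at 37°C. Viability is reported as a per-plate percentage of DMSO wells, with cell-free wells as background.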

SEM cells [2] = assay: as above
Procedure, shortened: as §1

NOMO1 [3] = assay: AUC of viability dose-response curve (% viability x log10 dose units); higher = less sensitive
Procedure, shortened: (§2)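 Leukemia cells adapted to each medium were seeded in 1536-well plates (500 or 1000 cells/well) and given library compounds in DMSO for 48 h at 37°C. The 11 threefold doses spanned 47 μM to 0.79 nM, and CellTiter-Glo One luminescence was normalised per plate to DMSO and cell-free wells before four-parameter log-logistic fitting on log10 dose. Area under the curve was integrated with the trapezoidal rule, scaling curves above full viability and removing curves that failed quality control.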

P12-Ichikawa [4] = assay: as above
Procedure, shortened: as §2

SEM cells [5] = assay: as above
Procedure, shortened: as §2

P12-Ichikawa [6] = assay: cell viability relative to DMSO control; higher = less cytotoxic
Procedure, shortened: as §1

O=[S+]([O-])(c1cccc2cnccc12)N1CCCNCC1
cell viability [%]
Settings | HPLM + 10% dialyzed FBS | RPMI 5 mM glucose + 10% FBS | RPMI 5 mM glucose + 10% dialyzed FBS
NOMO1 [1], 0.000781 µM | 98.7 | – | –
NOMO1 [1], 0.00234 µM | 124 | – | –
NOMO1 [1], 0.00702 µM | 136 | – | –
NOMO1 [1], 0.0211 µM | 136 | – | –
NOMO1 [1], 0.0632 µM | 132 | – | –
NOMO1 [1], 0.19 µM | 147 | – | –
NOMO1 [1], 0.569 µM | 139 | – | –
NOMO1 [1], 1.71 µM | 136 | – | –
NOMO1 [1], 5.12 µM | 130 | – | –
NOMO1 [1], 15.4 µM | 116 | – | –
NOMO1 [1], 46.1 µM | 51 | – | –
SEM cells [2], 0.000781 µM | 103 | 123 | 110
SEM cells [2], 0.00234 µM | 104 | 115 | 108
SEM cells [2], 0.00702 µM | 121 | 130 | 123
SEM cells [2], 0.0211 µM | 120 | 121 | 135
SEM cells [2], 0.0632 µM | 121 | 151 | 145
SEM cells [2], 0.19 µM | 127 | 146 | 136
SEM cells [2], 0.569 µM | 138 | 133 | 138
SEM cells [2], 1.71 µM | 113 | 143 | 172
SEM cells [2], 5.12 µM | 117 | 139 | 145
SEM cells [2], 15.4 µM | 127 | 148 | 146
SEM cells [2], 46.1 µM | 115 | 54.9 | 93.3

AUC of viability dose-response curve
Settings | NOMO1 [3] | P12-Ichikawa [4] | SEM cells [5]
HPLM + 10% dialyzed FBS | 457 | 456 | 452
RPMI 5 mM glucose + 10% FBS | 471 | 476 | 463
RPMI 5 mM glucose + 10% dialyzed FBS | 465 | 467 | 447

Cn1cc(C[C@@H](N)C(=O)O)c2ccccc21
cell viability [%]
Settings | NOMO1 [1] | P12-Ichikawa [6] | SEM cells [2]
HPLM + 10% dialyzed FBS, 0.000781 µM | 107 | 103 | 92
HPLM + 10% dialyzed FBS, 0.00234 µM | 106 | 109 | 105
HPLM + 10% dialyzed FBS, 0.00702 µM | 108 | 106 | 95.8
HPLM + 10% dialyzed FBS, 0.0211 µM | 106 | 104 | 113
HPLM + 10% dialyzed FBS, 0.0632 µM | 92.4 | 105 | 112
HPLM + 10% dialyzed FBS, 0.19 µM | 111 | 109 | 121
HPLM + 10% dialyzed FBS, 0.569 µM | 100 | 105 | 112
HPLM + 10% dialyzed FBS, 1.71 µM | 101 | 102 | 111
HPLM + 10% dialyzed FBS, 5.12 µM | 101 | 100 | 101
HPLM + 10% dialyzed FBS, 15.4 µM | 90.8 | 98.2 | 92.3
HPLM + 10% dialyzed FBS, 46.1 µM | 94.9 | 97.2 | 76.7
RPMI 5 mM glucose + 10% FBS, 0.000781 µM | 90.4 | 98.8 | 80
RPMI 5 mM glucose + 10% FBS, 0.00234 µM | 90.7 | 107 | 50.1
RPMI 5 mM glucose + 10% FBS, 0.00702 µM | 96.5 | 104 | 79.6
RPMI 5 mM glucose + 10% FBS, 0.0211 µM | 107 | 101 | 94
RPMI 5 mM glucose + 10% FBS, 0.0632 µM | 89.6 | 99.6 | 89.8
RPMI 5 mM glucose + 10% FBS, 0.19 µM | 95.1 | 106 | 96.4
RPMI 5 mM glucose + 10% FBS, 0.569 µM | 95.6 | 107 | 91.1
RPMI 5 mM glucose + 10% FBS, 1.71 µM | 95.5 | 97.1 | 97.9
RPMI 5 mM glucose + 10% FBS, 5.12 µM | 92.6 | 99.8 | 107
RPMI 5 mM glucose + 10% FBS, 15.4 µM | 97.9 | 100 | 80.9
RPMI 5 mM glucose + 10% FBS, 46.1 µM | 81.2 | 87.1 | 62.7
RPMI 5 mM glucose + 10% dialyzed FBS, 0.000781 µM | 90 | 91.3 | 114
RPMI 5 mM glucose + 10% dialyzed FBS, 0.00234 µM | 90.1 | 101 | 92.1
RPMI 5 mM glucose + 10% dialyzed FBS, 0.00702 µM | 93.4 | 100 | 102
RPMI 5 mM glucose + 10% dialyzed FBS, 0.0211 µM | 94 | 98.3 | 106
RPMI 5 mM glucose + 10% dialyzed FBS, 0.0632 µM | 101 | 105 | 97.7
RPMI 5 mM glucose + 10% dialyzed FBS, 0.19 µM | 98.9 | 106 | 108
RPMI 5 mM glucose + 10% dialyzed FBS, 0.569 µM | 93.8 | 96.5 | 98.8
RPMI 5 mM glucose + 10% dialyzed FBS, 1.71 µM | 88.9 | 100 | 97
RPMI 5 mM glucose + 10% dialyzed FBS, 5.12 µM | 93.3 | 95.8 | 102
RPMI 5 mM glucose + 10% dialyzed FBS, 15.4 µM | 87 | 93 | 96.3
RPMI 5 mM glucose + 10% dialyzed FBS, 46.1 µM | 76.7 | 91.9 | 70

AUC of viability dose-response curve
Settings | NOMO1 [3] | P12-Ichikawa [4] | SEM cells [5]
HPLM + 10% dialyzed FBS | 449 | 467 | 461
RPMI 5 mM glucose + 10% FBS | 448 | 472 | 406
RPMI 5 mM glucose + 10% dialyzed FBS | 440 | 469 | 467
